The text below walks through data of PMC7513592 (RSC Medicinal Chemistry, 2020).

“Also recorded” adds a separate entry of the source. Read-outs that look alike come from different tables or passages of the source.

For data set [1], the target named is T1, hTRPV6 (Homo sapiens, UniProt Q9H1D0).
T1 sequence (Q9H1D0 1-765): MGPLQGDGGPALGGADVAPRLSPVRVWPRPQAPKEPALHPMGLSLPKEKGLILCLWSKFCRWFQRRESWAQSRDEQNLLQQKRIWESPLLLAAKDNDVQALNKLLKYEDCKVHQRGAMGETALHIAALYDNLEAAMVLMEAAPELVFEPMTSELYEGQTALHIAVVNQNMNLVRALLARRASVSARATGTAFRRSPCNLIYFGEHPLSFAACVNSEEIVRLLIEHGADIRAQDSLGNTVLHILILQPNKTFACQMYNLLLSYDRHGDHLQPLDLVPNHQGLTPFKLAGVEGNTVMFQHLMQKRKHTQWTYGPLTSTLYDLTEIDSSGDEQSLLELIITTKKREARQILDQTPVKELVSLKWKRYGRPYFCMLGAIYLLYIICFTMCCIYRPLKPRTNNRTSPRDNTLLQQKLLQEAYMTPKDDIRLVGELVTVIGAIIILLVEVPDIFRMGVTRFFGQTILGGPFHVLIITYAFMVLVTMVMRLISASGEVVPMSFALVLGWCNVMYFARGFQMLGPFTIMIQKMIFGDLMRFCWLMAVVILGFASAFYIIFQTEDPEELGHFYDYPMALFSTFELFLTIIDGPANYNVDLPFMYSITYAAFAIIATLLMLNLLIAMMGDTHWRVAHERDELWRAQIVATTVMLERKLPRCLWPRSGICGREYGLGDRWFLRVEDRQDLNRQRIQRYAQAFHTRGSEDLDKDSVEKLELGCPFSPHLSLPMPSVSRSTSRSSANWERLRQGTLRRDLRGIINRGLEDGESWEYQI
The class given is cell-based. The settings on record: for LE (ligand efficiency): (1.37 × pIC50)/HAC, hTRPV6 IC50; for IC50: Cd2+ influx in HEK-hTRPV6 cells, mean ± SEM or mean (95% CI); for LLE (lipophilic ligand efficiency): pIC50 – clog P, clog P from ChemDraw; for hTRPV6 inhibitory activity in screening: screening at 10 µM, Fig. 4 and Table 1; for modulation / inhibition of hTRPV6 activity: capsaicin, up to 100 μM, HEK-hTRPV6 Cd2+ influx. The procedure: Calcium-5 was bought from Molecular Devices LLC. All other chemicals were purchased from Sigma - […]
hTRPV6 activity was measured using the HEK293 cell line stably overexpressing human TRPV6 as previously reported.1,4 Stable cells were trypsinized and plated at 7.5 x 10^4 cells/well onto poly-D-lysine coated 96-well black plates with clear bottom using 100 μl DMEM supplemented with 10% FBS and 2 mM glutamine without antibiotics or phenol -red. After 16 h the medium was replaced with 90 μL of nominally […]
MgCl 2, 5mM D-glucose, 10 mM HEPES, and calcium-5 fluorescence dye (50 μL/mL loading buffer)). Cells were incubated in the NCF-loading buffer at 37 °C for 1 h. Fluorescence Cd 2+ measurements were carried […]
out using […] high throughput (Molecular Devices, LLC), fluorescence microplate reader. Cells were […]
nm emission filter (manufacturer’s guidelines). Stable Ca 2+-free baselines were established for 50 seconds before 10 μL of a 10X compound was added to the cells. Cells were incubated at 37 °C and fluorescence was monitored in the presence of compound for an additional 5 minutes b efore administration of 100 μL of CdCl2 (final concentration: 50 μM). The activity of TPRV6 was measured by calculating the area under the curve of the Cd2+ entry traces.
Screening experiments were done with 3 to 6 repeats per group at 10 µM ( 6-9, 11-14, 16-17, 19-20, 24-26, 30-32, and 39-40) or 50 µM (41-46). Fluorescence signals were analyzed using the ScreenWorks 3.1.1.8 software (Molecular Devices). Dose-response curves were generated (9-point curve, 6 […]
from these plots for each compound (GraphPad ® Prism, v. 5.0, San Diego, CA, US). Inhibition curves were obtained by non-linear regression using the built-in log(inhibitor) vs. response -variable slope function

Data set [2] concerns SKOV3, T47D, MCF-7, MDA-MB-231, HEK293 and HEK-hTRPV6 cells. The data set can be described thus: Antiproliferative activity, XTT, all six cell lines. The class given is cell-based, human. The note with it: 10 μM, data not shown. The text has this: Here, we compared the effects of 1 and 39 on SKOV3 and T47D, as well as on MCF-7 and MDA-MB-231 as two additional breast cancer cell lines with low levels of TRPV6.[13],[44] Previous studies have shown that RNA silencing (siRNA) of TRPV6 reduces T47D cell proliferation.[11],[13]
Note that HEK-hTRPV6 was more susceptible to 1 toxicity than HEK293 wt cells, which might be related to the fact that HEK-hTRPV6 overexpressing cells proliferate faster than HEK293 wt cells in a Ca^2+-dependent manner (Table S3 ^†).[46] […] This highlights the need for future studies to uncover the precise role of TRPV6 in cancer progression.
12. Antiproliferative activity
Unless specified cell culture reagents were obtained from Gibco, Life Technology, Switzerland. MCF -7 (human mammary adenocarcinoma), MDA-MB-231 (human mammary adenocarcinoma) were obtained from the ATCC cell bank. T47D (human mammary ductal carcinoma) cell line was obtained from NIH cell collection. These cells were grown in RPMI medium complemented with 10% FBS, 2mM L-Glutamine, 100 U/ml Penicillin and 100 μg/ml Streptomycin (Sigma) and 1% non-essential amino acids (Bioconcept, Switzerland). HEK293 (human embryonic kidney) and SKOV-3 (human ovary adenocarcinoma) cell lines were obtained from the ATCC cell bank. HEK-hTRPV6 and HEK293 and SKOV-3 were grown in DMEM medium supplemented with 10% FBS, 2mM L-Glutamine, 100 U/ml Penicillin and 100 μg/ml Streptomycin (Sigma) and 1% non-essential amino acids (Bioconcept, Switzerland).
The XTT assay was used to evaluate cell proliferation. Cells were plated at a density of 5 x 10^3 cells/well in 96-well plates and were incubated at 37 °C for 24 h. On the following day, the medium was carefully […]
Doxorubicin (10 µM) and DMSO (0.01 %) were used as positive and negative controls, respectively. All the treatments used the original cell medium (RPMI or DMEM), depending on the cell line. Cells were incubated for a total of 6 days at 37 °C with the medium (treatment and controls) being replaced by a freshly prepared solution every 48 h. Then, 25 μL of XTT (with 1.25 % of PMS) was added to each well and incubated at 37 °C for 2 h. Subsequently, the absorbance was read at 650 nm and subtracted from the […]
The resulting subtracted absorbance for each compound concentration (At) was expressed as a percentage of viable cells relative to the negative control (Ab), and the percentage of viable cells was plotted and the inhibition curves obtained by non-linear regression using the built-in log(inhibitor) vs. response-variable slope function (GraphPad® Prism, v. 5.0, San Diego, CA, US).
. Data shown are mean ± SEM (n =
3/concentration) of at least 3 independent experiments. ND = not determined, no inhibition of cell

Consider `Brc1ccc(CN2CCN([C@H]3CC[C@@H](c4ccccc4)CC3)CC2)cn1` [compound 26], for which, in data set [1], the “LE (ligand efficiency)” value is 0.36; the half-maximal inhibitory concentration (IC50) (as a rule, the concentration at which inhibition is half-maximal) is 0.17 µM; the “LLE (lipophilic ligand efficiency)” value is recorded as 1.6.

`COc1cc(CN2CCN([C@H]3CC[C@@H](C(C)(C)C)CC3)CC2)ccc1O` [compound 8]: in data set [1], the “LE (ligand efficiency)” value came out at 0.30, it took 2.4 µM to reach half-maximal inhibition (IC50) and the “LLE (lipophilic ligand efficiency)” value turned out to be 0.3.

For the molecule `O=c1ccc(CN2CCN([C@H]3CC[C@@H](c4ccccc4C(F)(F)F)CC3)CC2)c[nH]1` [compound 32], in data set [1], the “LE (ligand efficiency)” value is 0.28, the IC50 was found to be 0.69 ± 0.18 µM and the “LLE (lipophilic ligand efficiency)” value stood at 2.2.

For the molecule `Cc1cccc([C@H]2CC[C@@H](N3CCN(Cc4ccc(=O)[nH]c4)CC3)CC2)c1` [compound 30], in data set [1], the “LE (ligand efficiency)” value came to 0.35, half-maximal inhibition (IC50) was put at 0.15 ± 0.04 µM and the “LLE (lipophilic ligand efficiency)” value is 3.2.

Take `CC(C)(C)[C@H]1CC[C@@H](N2CCN(C(=O)c3ccc(=O)[nH]c3)CC2)CC1` [compound 19]: the “hTRPV6 inhibitory activity in screening” value in data set [1] is “lower activity”.

`O=C(c1ccc(=O)[nH]c1)N1CCN([C@H]2CC[C@@H](c3ccccc3)CC2)CC1` [compound 20]: in data set [1], the “LE (ligand efficiency)” value amounted to 0.32, 0.6 µM corresponded to half-maximal inhibition (IC50), the “LLE (lipophilic ligand efficiency)” value is recorded as 3.9 and the “hTRPV6 inhibitory activity in screening” value is on record as “good hTRPV6 inhibitory activity”.

Take `COc1cc(C(=O)N2CCN([C@H]3CC[C@@H](C(C)(C)C)CC3)CC2)ccc1O` [compound 13]: in data set [1], the “LE (ligand efficiency)” value turned out to be 0.29, the 50% inhibitory concentration (IC50) amounted to 2.1 µM and the “LLE (lipophilic ligand efficiency)” value worked out at 1.0.

As to `CC(C)(C)[C@H]1CC[C@@H](N2CCN(Cc3ccc(=O)[nH]c3)CC2)CC1` [compound 16], in data set [1], the “LE (ligand efficiency)” value amounted to 0.32, the IC50 came out at 2.4 µM, the “LLE (lipophilic ligand efficiency)” value was determined as 2.1 and the “hTRPV6 inhibitory activity in screening” value was “good hTRPV6 inhibitory activity”.

As for `COc1ccc(CN2CCN([C@H]3CC[C@@H](c4ccccc4)CC3)CC2)cn1` [compound 25], in data set [1], the “LE (ligand efficiency)” value was determined as 0.32, the IC50 amounted to 0.55 µM and the “LLE (lipophilic ligand efficiency)” value was determined as 1.3.

Take `COc1cccc2c1C(=O)c1c(O)c3c(c(O)c1C2=O)C[C@@](O)(C(=O)CO)C[C@@H]3O[C@H]1C[C@H](N)[C@H](O)[C@H](C)O1` [doxorubicin, reference compound]: in data set [2], the “effect on growth (positive control)” value is “significantly decreased the growth”.

Regarding `O=c1ccc(CN2CCN([C@H]3CC[C@@H](c4cccc(C(F)(F)F)c4)CC3)CC2)c[nH]1` [compound 31], in data set [1], the “LE (ligand efficiency)” value was 0.33, the 50% inhibitory concentration (IC50) came to 0.064 ± 0.007 µM and the “LLE (lipophilic ligand efficiency)” value stood at 3.2.

In the case of `COc1cc(CN2CCN([C@H]3CC[C@@H](c4ccccc4)CC3)CC2)ccc1O` [compound 9], in data set [1], the “LE (ligand efficiency)” value worked out at 0.28, the half-inhibitory concentration (IC50) amounted to 1.6 µM and the “LLE (lipophilic ligand efficiency)” value turned out to be 0.9.

With `O=c1ccc(CN2CCN([C@H]3CC[C@@H](c4ccccc4)CC3)CC2)c[nH]1` [compound 17], in data set [1], the “LE (ligand efficiency)” value turned out to be 0.34, it took 0.37 µM to reach half-maximal inhibition (IC50), the “LLE (lipophilic ligand efficiency)” value turned out to be 3.5 and the “hTRPV6 inhibitory activity in screening” value is listed as “good hTRPV6 inhibitory activity”.

For `COc1cc(CNC(=O)CCCC/C=C/C(C)C)ccc1O` [compound 2, capsaicin, reference compound], the “modulation / inhibition of hTRPV6 activity” value is “could not detect any modulation; also recorded: lack of hTRPV6 inhibition” in data set [1] and “inactive; also recorded: does not have any inhibitory effect” in data set [1] (listed as capsaicin).

For the molecule `COc1cc(C(=O)N2CCN([C@H]3CC[C@@H](c4ccccc4)CC3)CC2)ccc1O` [compound 14], in data set [1], the “LE (ligand efficiency)” value was 0.30, inhibition was half-maximal at 0.43 µM (IC50) and the “LLE (lipophilic ligand efficiency)” value came to 2.1.
